Measured values reported in patent US20210009583A1, “DEUTERATED IMIDAZOPYRIDINES” (UNIVERSITY OF NOTRE DAME DU LAC, priority 2018, published 2021).
“And” between values parts separate entries of the source, which are not always exact repeats. Equal entries are not always repeated. Marks after values point to notes of the source that are not given here.

How the values were obtained:
[1] = test system: M. tuberculosis; experiment: Chronic Balb/c mouse model of M. tuberculosis infection; type: in vivo
[2] = Body weight at gross necropsy after 4 weeks of treatment (chronic model); type: in vivo, Balb/c mouse; settings: Group 8, INH, individual mice
Experimental: When evaluated in the “Chronic Balb/c mouse model” of M. tuberculosis infection by the method of Lenaerts, A. J., et. al. 2005. Preclinical testing of the nitroimidazopyran PA-824 for activity against M. tuberculosis in a series of in vitro and in vivo models. AAC. 49(6):2294-301. ND-012101 at 200 mg/kg and ND-012101(100 mg/kg)+ABT (100 mg/kg) both achieved 100% mouse survival after 4 weeks of oral dosing.

NNC(=O)c1ccncc1 [INH, Isoniazid, reference compound]
Spleen, gross necropsy observation ([1]; Group 8, INH, after 4 weeks of treatment, individual mice): enlarged | Lung Log10 CFU ± SEM ([1]; INH (25), 4 Week Treatment): 4.06 ± 0.11 Log10 CFU | Spleen Log10 CFU ± SEM ([1]; INH (25), 4 Week Treatment): 2.13 ± 0.12^a Log10 CFU | Log reduction vs CTL (Lg) ([1]; lung, INH (25), 4 Week Treatment): 1.73 | Log reduction vs CTL (Sp) ([1]; spleen, INH (25), 4 Week Treatment): 2.87 | Weight [2]: 19.6 and 20.2 and 20.1 and 19.9 and 19.2 and 20.8
